Results on six compounds are retold here after patent publication US5281596A, “Antibacterial drugs for fish” (Bayer Aktiengesellschaft, priority 1986, dated 1994).

What all share (assay): In vitro antibacterial activity on pathogenic bacteria for fish (agar MIC, Test Example 1)
Format in all cases: cell-based

One assay deals with Pasteurella piscicida. The following applies: 20 h; for MIC (minimum growth-inhibition concentration): Mueller-Hinton agar; for MIC: Photobacterium damselae. As to the method: (§1) In vitro antibacterial activity on pathogenic-bacteria for fish
(§2) Each of the test strains was cultured over-night, and each culture broth (containing about 10^6 cells/ml) was innoculated in Mueller-Hinton agar (DIFCO) supplied with 1.0-2.0% sodium chloride and containing the test compound at each specified concentration.

Another assay has as its system Aeromonas hydrophila. The conditions noted are these: 20 h; for MIC (minimum growth-inhibition concentration): Mueller-Hinton agar; for MIC: Aeromonas hydrophila. As to the method:
as §1, §2

Another assay relates to Vibrio anguillarum. The conditions noted are these: 20 h, 25-30 °C; for MIC (minimum growth-inhibition concentration): Mueller-Hinton agar; for MIC: Vibrio anguillarum, read-out: MIC (minimum growth-inhibition concentration). On the procedure: as §1, §2
Setting [1] is: Pasteurella piscicida strain EH8304, 25-30 °C.
Where [2] appears, read: Pasteurella piscicida strain EH8309, 25-30 °C.
[3] abbreviates: Pasteurella piscicida strain EH8312, 25-30 °C.
Setting [4] is: Pasteurella piscicida strain EH8313, 25-30 °C.
Setting [5] is: Pasteurella piscicida strain NG8319, 25-30 °C.
Where [6] appears, read: Aeromonas hydrophila strain C 44, 25-30 °C.
Where [7] appears, read: Aeromonas hydrophila strain KA8301, 25-30 °C.
Where [8] appears, read: Aeromonas hydrophila strain KA8414, 25-30 °C.
Setting [9] is: Aeromonas hydrophila strain KA8416, 25-30 °C.
The mark [10] stands for this setting: Aeromonas hydrophila strain M 183, 25-30 °C.
The mark [11] stands for this setting: Vibrio anguillarum strain NA8340.
The mark [12] stands for this setting: Vibrio anguillarum strain NA8341.
Where [13] appears, read: Vibrio anguillarum strain NA8346.
Where [14] appears, read: Vibrio anguillarum strain NA8347.
Where [15] appears, read: Vibrio anguillarum strain NH8410.
The mark [16] stands for this setting: Vibrio anguillarum strain NA8340, Mueller-Hinton agar.
Setting [17] is: Vibrio anguillarum strain NA8341, Mueller-Hinton agar.
[18] abbreviates: Vibrio anguillarum strain NA8346, Mueller-Hinton agar.
Setting [19] is: Vibrio anguillarum strain NA8347, Mueller-Hinton agar.
Where [20] appears, read: Vibrio anguillarum strain NH8410, Mueller-Hinton agar.
Where [21] appears, read: Pasteurella piscicida strain EH8304, Mueller-Hinton agar, 25-30 °C, read-out: MIC (minimum growth-inhibition concentration).
Where [22] appears, read: Pasteurella piscicida strain EH8309, Mueller-Hinton agar, 25-30 °C, read-out: MIC (minimum growth-inhibition concentration).
Where [23] appears, read: Pasteurella piscicida strain EH8312, Mueller-Hinton agar, 25-30 °C, read-out: MIC (minimum growth-inhibition concentration).
The mark [24] stands for this setting: Pasteurella piscicida strain EH8313, Mueller-Hinton agar, 25-30 °C, read-out: MIC (minimum growth-inhibition concentration).
The mark [25] stands for this setting: Pasteurella piscicida strain NG8319, Mueller-Hinton agar, 25-30 °C, read-out: MIC (minimum growth-inhibition concentration).
Setting [26] is: Aeromonas hydrophila strain C 44, Mueller-Hinton agar, 25-30 °C, read-out: MIC (minimum growth-inhibition concentration).
Where [27] appears, read: Aeromonas hydrophila strain KA8301, Mueller-Hinton agar, 25-30 °C, read-out: MIC (minimum growth-inhibition concentration).
The mark [28] stands for this setting: Aeromonas hydrophila strain KA8414, Mueller-Hinton agar, 25-30 °C, read-out: MIC (minimum growth-inhibition concentration).
[29] abbreviates: Aeromonas hydrophila strain KA8416, Mueller-Hinton agar, 25-30 °C, read-out: MIC (minimum growth-inhibition concentration).
Setting [30] is: Aeromonas hydrophila strain M 183, Mueller-Hinton agar, 25-30 °C, read-out: MIC (minimum growth-inhibition concentration).

Converted amounts (≈) assume the structure as drawn. Structures can show the parent of a compound that is named as a salt. Where two headings read alike, the source gives them in different places.

In the case of `CCN1CCN(c2cc3c(cc2F)c(=O)c(C(=O)O)cn3C2CC2)CC1` [Compound G, embonate of 1-cyclopropyl-6-fluoro-1,4-dihydro-4-oxo-7-(4-ethylpiperazino)-quinoline-3-carboxylic acid], the “MIC (minimum growth-inhibition concentration)” value is 0.1 µg/mL (≈ 0.278 µM) with Pasteurella piscicida (setting [1]); 0.1 µg/mL (≈ 0.278 µM) in the assay on Pasteurella piscicida (setting [2]); 0.05 µg/mL (≈ 0.139 µM) against Pasteurella piscicida (setting [3]); 0.05 µg/mL (≈ 0.139 µM) in the assay on Pasteurella piscicida (setting [4]); 0.01 µg/mL (≈ 0.0278 µM) against Pasteurella piscicida (setting [5]); 0.05 µg/mL (≈ 0.139 µM) against Aeromonas hydrophila (setting [6]). Further, the “MIC (minimum growth-inhibition concentration)” value in the assay on Aeromonas hydrophila (setting [7]), in the assay on Aeromonas hydrophila (setting [8]), against Aeromonas hydrophila (setting [9]), with Aeromonas hydrophila (setting [10]), with Vibrio anguillarum (setting [11]) and against Vibrio anguillarum (setting [12]) was 0.05 µg/mL (≈ 0.139 µM) in each case. Further, the “MIC (minimum growth-inhibition concentration)” value against Vibrio anguillarum (setting [13]), in the assay on Vibrio anguillarum (setting [14]) and against Vibrio anguillarum (setting [15]) was 0.05 µg/mL (≈ 0.139 µM) each time.

Turning to `O=C(O)c1cn(C2CC2)c2cc(N3CCNCC3)c(F)cc2c1=O` [Compound A, hydrochloride of 1-cyclopropyl-6-fluoro-1,4-dihydro-4-oxo-7-piperazino-quinoline-3-carboxylic acid], the MIC in the assay on Pasteurella piscicida (read-out: MIC (minimum growth-inhibition concentration), Pasteurella piscicida strain EH8304, Mueller-Hinton agar, 25-30 °C) was 0.05 µg/mL; in the assay on Pasteurella piscicida (read-out: MIC (minimum growth-inhibition concentration), Pasteurella piscicida strain EH8309, Mueller-Hinton agar, 25-30 °C), under 0.025 µg/mL; in the assay with Pasteurella piscicida (read-out: MIC (minimum growth-inhibition concentration), Pasteurella piscicida strain EH8312, Mueller-Hinton agar, 25-30 °C) it was 0.05 µg/mL; with Pasteurella piscicida (read-out: MIC (minimum growth-inhibition concentration), Pasteurella piscicida strain NG8319, Mueller-Hinton agar, 25-30 °C), under 0.025 µg/mL; in the assay on Aeromonas hydrophila (read-out: MIC (minimum growth-inhibition concentration), Aeromonas hydrophila strain C 44, Mueller-Hinton agar, 25-30 °C), under 0.025 µg/mL; in the assay with Aeromonas hydrophila (read-out: MIC (minimum growth-inhibition concentration), Aeromonas hydrophila strain KA8301, Mueller-Hinton agar, 25-30 °C), under 0.025 µg/mL. In addition, the MIC was under 0.025 µg/mL with Aeromonas hydrophila (read-out: MIC (minimum growth-inhibition concentration), Aeromonas hydrophila strain KA8414, Mueller-Hinton agar, 25-30 °C); under 0.025 µg/mL in the assay on Aeromonas hydrophila (read-out: MIC (minimum growth-inhibition concentration), Aeromonas hydrophila strain KA8416, Mueller-Hinton agar, 25-30 °C); under 0.025 µg/mL with Aeromonas hydrophila (read-out: MIC (minimum growth-inhibition concentration), Aeromonas hydrophila strain M 183, Mueller-Hinton agar, 25-30 °C); under 0.025 µg/mL in the assay on Vibrio anguillarum (setting [16]); under 0.025 µg/mL with Vibrio anguillarum (setting [17]); under 0.025 µg/mL with Vibrio anguillarum (setting [18]). The MIC in the assay on Vibrio anguillarum (setting [19]) and in the assay with Vibrio anguillarum (setting [20]) was under 0.025 µg/mL in each case.

In the case of `CCN1CCN(c2cc3c(cc2F)c(=O)c(C(=O)O)cn3C2CC2)CC1` [Compound E, dihydrate of hydrochloride of 1-cyclopropyl-6-fluoro-1,4-dihydro-4-oxo-7-(4-ethylpiperazino)-quinoline-3-carboxylic acid], the “MIC (minimum growth-inhibition concentration)” value with Pasteurella piscicida (setting [1]) was 0.05 µg/mL; against Pasteurella piscicida (setting [2]), 0.05 µg/mL; against Pasteurella piscicida (setting [3]), 0.05 µg/mL; against Pasteurella piscicida (setting [4]), 0.05 µg/mL; with Pasteurella piscicida (setting [5]), 0.05 µg/mL; in the assay on Aeromonas hydrophila (setting [6]), under 0.025 µg/mL. Moreover, the “MIC (minimum growth-inhibition concentration)” value in the assay on Aeromonas hydrophila (setting [7]) is 0.05 µg/mL; in the assay on Aeromonas hydrophila (setting [8]), under 0.025 µg/mL; in the assay on Aeromonas hydrophila (setting [9]), under 0.025 µg/mL; against Aeromonas hydrophila (setting [10]), under 0.025 µg/mL; in the assay on Vibrio anguillarum (setting [11]), 0.05 µg/mL; against Vibrio anguillarum (setting [12]), 0.05 µg/mL. Moreover, the “MIC (minimum growth-inhibition concentration)” value in the assay on Vibrio anguillarum (setting [13]), against Vibrio anguillarum (setting [14]) and in the assay on Vibrio anguillarum (setting [15]) was 0.05 µg/mL each time.

Regarding `CN1CCN(c2cc3c(cc2F)c(=O)c(C(=O)O)cn3C2CC2)CC1` [Compound C, hydrochloride of 1-cyclopropyl-6-fluoro-1,4-dihydro-4-oxo-7-(4-methylpiperazino)quinoline-3-carboxylic acid], the MIC was 0.05 µg/mL in the assay on Pasteurella piscicida (setting [21]); 0.05 µg/mL with Pasteurella piscicida (setting [22]); 0.05 µg/mL in the assay with Pasteurella piscicida (setting [23]); 0.05 µg/mL with Pasteurella piscicida (setting [24]); 0.05 µg/mL in the assay on Pasteurella piscicida (setting [25]); under 0.025 µg/mL with Aeromonas hydrophila (setting [26]). For the same compound, the MIC with Aeromonas hydrophila (setting [27]), in the assay on Aeromonas hydrophila (setting [28]), with Aeromonas hydrophila (setting [29]), in the assay on Aeromonas hydrophila (setting [30]), with Vibrio anguillarum (setting [16]) and with Vibrio anguillarum (setting [17]) was under 0.025 µg/mL each time. For the same compound, the MIC in the assay with Vibrio anguillarum (setting [18]), in the assay on Vibrio anguillarum (setting [19]) and with Vibrio anguillarum (setting [20]) was under 0.025 µg/mL each time.

On to `O=C(O)c1cn(C2CC2)c2cc(N3CCN(CCO)CC3)c(F)cc2c1=O` [Compound F, hydrochloride of 1-cyclopropyl-6-fluoro-1,4-dihydro-4-oxo-7-(4-β-hydroxyethyl-piperazino)-quinoline-3-carboxylic acid], for which the MIC was 0.1 µg/mL in the assay on Pasteurella piscicida (setting [21]); 0.1 µg/mL with Pasteurella piscicida (setting [22]); 0.1 µg/mL with Pasteurella piscicida (setting [23]); 0.1 µg/mL with Pasteurella piscicida (setting [24]); 0.1 µg/mL in the assay with Pasteurella piscicida (setting [25]); under 0.025 µg/mL in the assay with Aeromonas hydrophila (setting [26]). Further, the MIC was 0.05 µg/mL in the assay on Aeromonas hydrophila (setting [27]); under 0.025 µg/mL in the assay with Aeromonas hydrophila (setting [28]); under 0.025 µg/mL in the assay with Aeromonas hydrophila (setting [29]); under 0.025 µg/mL in the assay on Aeromonas hydrophila (setting [30]); 0.1 µg/mL with Vibrio anguillarum (setting [16]); 0.1 µg/mL with Vibrio anguillarum (setting [17]). Further, the MIC in the assay on Vibrio anguillarum (setting [18]) is 0.1 µg/mL; with Vibrio anguillarum (setting [19]), 0.05 µg/mL; with Vibrio anguillarum (setting [20]), 0.1 µg/mL.

As to `O=C(O)c1cn(C2CC2)c2cc(N3CCNCC3)c(F)cc2c1=O` [Compound B, monohydrate of hydrochloride of 1-cyclopropyl-6-fluoro-1,4-dihydro-4-oxo-7-piperazino-quinoline-3-carboxylic acid], the “MIC (minimum growth-inhibition concentration)” value was 0.025 µg/mL against Pasteurella piscicida (setting [1]); under 0.0125 µg/mL in the assay on Pasteurella piscicida (setting [2]); 0.025 µg/mL with Pasteurella piscicida (setting [3]); 0.025 µg/mL against Pasteurella piscicida (setting [5]); under 0.0125 µg/mL in the assay on Aeromonas hydrophila (setting [6]); under 0.0125 µg/mL with Aeromonas hydrophila (setting [7]). Also, the “MIC (minimum growth-inhibition concentration)” value with Aeromonas hydrophila (setting [8]) is under 0.0125 µg/mL; with Aeromonas hydrophila (setting [9]) it was under 0.0125 µg/mL; with Aeromonas hydrophila (setting [10]) it was under 0.0125 µg/mL; in the assay with Vibrio anguillarum (setting [11]) it was 0.025 µg/mL; in the assay on Vibrio anguillarum (setting [12]), 0.025 µg/mL; in the assay with Vibrio anguillarum (setting [13]), 0.025 µg/mL. Also, the “MIC (minimum growth-inhibition concentration)” value with Vibrio anguillarum (setting [14]) and in the assay on Vibrio anguillarum (setting [15]) was 0.025 µg/mL each time. Moreover, the MIC in the assay on Pasteurella piscicida (read-out: MIC (minimum growth-inhibition concentration), Pasteurella piscicida strain EH8313, Mueller-Hinton agar, 25-30 °C) turned out to be 0.025 µg/mL.
